This note sets out measurements from PMC5513444, “The synthesis and evaluation of triazolopyrimidines as anti-tubercular agents” (Bioorganic & Medicinal Chemistry, 2017).

Series [1] concerns M. tuberculosis H37Rv. In words: MIC90 against M. tuberculosis in liquid medium. The series is classed as cell-based, Mycobacterium tuberculosis. The conditions noted are these: Mycobacterium tuberculosis, H37RV, 120 h; liquid medium 7H9-Tw-OADC, aerobic, 5 days; average ± SD of two independent experiments; read-out: MIC (MIC90, minimum concentration required to inhibit growth of M. tuberculosis by 90%).

Series [2] concerns HepG2 cells. Kind of series: Cytotoxicity against HepG2 cell line (CellTiter-Glo). The series is classed as cell-based. The settings on record: for IC50: Homo sapiens, 48 h, HepG2, 2 days incubation, read-out: IC50 (concentration required to reduce the viability of HepG2 cells by 50%); for Selectivity index (SI) = IC50/MIC90: HepG2 IC50 / M. tuberculosis MIC90.

≈ marks a conversion by molar mass, not a printed value.

With `COc1ccc(CCNc2cc(C3CCCCC3)nc3ncnn23)cc1` [Compound 25, 5-Cyclohexyl-N-(4-methoxyphenethyl)-[1,2,4]triazolo[1,5-a]pyrimidin-7-amine], the melting point was 193 to 194 °C. Further, in series [1], the MIC90 was over 20 µM. For the same compound, in series [2], the IC50 worked out at 47 µM.
The corresponding values for `c1ccc(-c2ccn3ncnc3n2)cc1` [Compound 27, 5-Phenyl-[1,2,4]triazolo[1,5-a]pyrimidine] are 179 to 181 °C, over 20 µM and over 20 µM.
The compound `Nc1cc(-c2ccccc2)nc2ncnn12` [Compound 28, 5-Phenyl-[1,2,4]triazolo[1,5-a]pyrimidin-7-amine] yielded a melting point of 302 to 304 °C. Further, the MIC90 in series [1] is over 20 µM. Besides, in series [2], the IC50 was over 20 µM.
Compound `CNc1cc(-c2ccccc2)nc2ncnn12` [Compound 29, N-Methyl-5-phenyl-[1,2,4]triazolo[1,5-a]pyrimidin-7-amine] returned a melting point of 200 to 202 °C. Moreover, the MIC90 in series [1] was over 20 µM. In series [2], the IC50 was over 20 µM.
Turning to `CCNc1cc(-c2ccccc2)nc2ncnn12` [Compound 30, N-Ethyl-5-phenyl-[1,2,4]triazolo[1,5-a]pyrimidin-7-amine], the melting point was in the range of 170 to 172 °C. Besides, the MIC90 in series [1] was over 20 µM. Also, the IC50 in series [2] was determined as 37 µM.
The compound `CCCNc1cc(-c2ccccc2)nc2ncnn12` [Compound 31, 5-Phenyl-N-propyl-[1,2,4]triazolo[1,5-a]pyrimidin-7-amine] registered a melting point of 139 to 140 °C. For the same compound, in series [1], the MIC90 was over 20 µM. Further, in series [2], the IC50 stood at 94 µM.
For `CCCCNc1cc(-c2ccccc2)nc2ncnn12` [Compound 32, N-Butyl-5-phenyl-[1,2,4]triazolo[1,5-a]pyrimidin-7-amine], the melting point lay in the range of 125 to 126 °C. The MIC90 in series [1] was over 20 µM. Besides, the IC50 in series [2] was 98 µM.
Take `COCCNc1cc(-c2ccccc2)nc2ncnn12` [Compound 33, N-(2-Methoxyethyl)-5-phenyl-[1,2,4]triazolo[1,5-a]pyrimidin-7-amine]: the melting point was 116 to 118 °C. For the same compound, in series [1], the MIC90 was over 20 µM. Besides, the IC50 in series [2] was over 100 µM.
In the same order, the values of `c1ccc(-c2cc(NC3CC3)n3ncnc3n2)cc1` [Compound 34, N-Cyclopropyl-5-phenyl-[1,2,4]triazolo[1,5-a]pyrimidin-7-amine] are 193 to 195 °C, over 20 µM and over 100 µM.
For the compound `c1ccc(-c2cc(NC3CCC3)n3ncnc3n2)cc1` [Compound 35, N-Cyclobutyl-5-phenyl-[1,2,4]triazolo[1,5-a]pyrimidin-7-amine], the melting point was 193 to 194 °C. Besides, in series [1], the MIC90 is over 20 µM. In series [2], the IC50 amounted to 57 µM.
`c1ccc(-c2cc(NCCC3CCCCC3)n3ncnc3n2)cc1` [Compound 36, N-(2-Cyclohexylethyl)-5-phenyl-[1,2,4]triazolo[1,5-a]pyrimidin-7-amine] came in with a melting point of 168 to 169 °C. Also, in series [1], the MIC90 was 17 ± 2.1 µM (≈ 5.46 µg/mL). For the same compound, in series [2], the “Selectivity index (SI) = IC50/MIC90” value was over 6 and the IC50 was over 100 µM.
In the case of `COc1ccc(Nc2cc(-c3ccccc3)nc3ncnn23)cc1` [Compound 37, N-(4-Methoxyphenyl)-5-phenyl-[1,2,4]triazolo[1,5-a]pyrimidin-7-amine], the melting point fell in the range of 200 to 202 °C. The MIC90 in series [1] was over 20 µM. The IC50 in series [2] was determined as 49 µM.
The corresponding values for `COc1ccc(CNc2cc(-c3ccccc3)nc3ncnn23)cc1` [Compound 38, N-(4-Methoxybenzyl)-5-phenyl-[1,2,4]triazolo[1,5-a]pyrimidin-7-amine] are 162 to 163 °C, over 20 µM and 43 µM.
In turn, `c1ccc(CCNc2cc(-c3ccccc3)nc3ncnn23)cc1` [Compound 39, N-Phenethyl-5-phenyl-[1,2,4]triazolo[1,5-a]pyrimidin-7-amine] showed a melting point of 164 to 165 °C. In series [1], the MIC90 is 7.7 ± 0.7 µM (≈ 2.43 µg/mL). Further, in series [2], the “Selectivity index (SI) = IC50/MIC90” value is given as 3.5 and the IC50 was found to be 27 µM.
For `c1ccc(CCCNc2cc(-c3ccccc3)nc3ncnn23)cc1` [Compound 40, 5-Phenyl-N-(3-phenylpropyl)-[1,2,4]triazolo[1,5-a]pyrimidin-7-amine], the melting point was 143 to 145 °C. Further, in series [1], the MIC90 is over 20 µM. Also, the IC50 in series [2] was 8.7 µM.
The corresponding values for `c1ccc(-c2cc(NCCc3ccccn3)n3ncnc3n2)cc1` [Compound 41, 5-Phenyl-N-(2-(pyridin-2-yl)ethyl)-[1,2,4]triazolo[1,5-a]pyrimidin-7-amine] are 111 to 114 °C, over 20 µM and over 100 µM.
In the same order, the values of `c1ccc(-c2cc(NCCc3cccnc3)n3ncnc3n2)cc1` [Compound 42, 5-Phenyl-N-(2-(pyridin-3-yl)ethyl)-[1,2,4]triazolo[1,5-a]pyrimidin-7-amine] are 169 to 171 °C, over 20 µM and over 100 µM.
`c1ccc(-c2cc(NCCc3ccncc3)n3ncnc3n2)cc1` [Compound 43, 5-Phenyl-N-(2-(pyridin-4-yl)ethyl)-[1,2,4]triazolo[1,5-a]pyrimidin-7-amine] yielded a melting point of 231 to 233 °C. The MIC90 in series [1] is over 20 µM. For the same compound, the IC50 in series [2] is over 100 µM.
`CCc1ccc(CCNc2cc(-c3ccccc3)nc3ncnn23)cc1` [Compound 45, N-(4-Ethylphenethyl)-5-phenyl-[1,2,4]triazolo[1,5-a]pyrimidin-7-amine] yielded a melting point of 152 to 154 °C. In addition, the MIC90 in series [1] came to 0.74 ± 0.1 µM (≈ 0.254 µg/mL). In series [2], the “Selectivity index (SI) = IC50/MIC90” value is over 138 and the IC50 was over 100 µM.
`Fc1ccc(CCNc2cc(-c3ccccc3)nc3ncnn23)cc1` [Compound 46, N-(4-Fluorophenethyl)-5-phenyl-[1,2,4]triazolo[1,5-a]pyrimidin-7-amine] came in with a melting point of 169 to 170 °C. The MIC90 in series [1] is over 20 µM. For the same compound, in series [2], the IC50 is 50 µM.
The compound `FC(F)(F)c1ccc(CCNc2cc(-c3ccccc3)nc3ncnn23)cc1` [Compound 47, 5-Phenyl-N-(4-(trifluoromethyl)phenethyl)-[1,2,4]triazolo[1,5-a]pyrimidin-7-amine] registered a melting point of 183 to 184 °C. In addition, the MIC90 in series [1] came out at 2.7 ± 0.7 µM (≈ 1.04 µg/mL). Besides, in series [2], the “Selectivity index (SI) = IC50/MIC90” value is recorded as over 38 and the IC50 was over 100 µM.
In the same order, the values of `COc1ccc(CC(=O)Nc2cc(-c3ccccc3)nc3ncnn23)cc1OC` [Compound 50, 2-(3,4-Dimethoxyphenyl)-N-(5-phenyl-[1,2,4]triazolo[1,5-a]pyrimidin-7-yl)acetamide] are 202 to 204 °C, 10 ± 1.1 µM (≈ 3.89 µg/mL), over 10 and over 100 µM.
In turn, `c1ccc(CCNc2cc(-c3ccccn3)nc3ncnn23)cc1` [Compound 51, N-Phenethyl-5-(pyridin-2-yl)-[1,2,4]triazolo[1,5-a]pyrimidin-7-amine] registered a melting point of 214 to 215 °C. Besides, the MIC90 in series [1] worked out at 2.4 ± 1.3 µM (≈ 0.759 µg/mL). Further, in series [2], the “Selectivity index (SI) = IC50/MIC90” value is on record as over 46 and the IC50 is over 100 µM.
